Measurements taken from paper PMC9775191, “A Subset Screen of the Compounds Australia Scaffold Library Identifies 7-Acylaminodibenzoxazepinones as Potent and Selective Hits for Anti-Giardia Drug Discovery” (Biomedicines, 2022).

What follows are compounds tested on G. duodenalis BRIS/91/HEPU/1279 (assay: Primary Giardia screen at 10 µM (live-cell imaging, automated counting)). Settings: 24 h.
Assay type: cell-based, Giardia duodenalis
Outline: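 Compound added to 10 μM final in medium with 0.2% DMSO, one well each; plates then held in sealed chambers at 3% O2, 5% CO2 in N2; growth imaged and counted automatically at 24 and 48 h; values normalised to vehicle wells minus media blank.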

| SMILES | Average % Inhibition 24h |
| --- | --- |
| Cc1ccc2c(c1)N=C(c1ccc(C)o1)N=C(c1cccs1)N2 [SN00785905] | 15.2% |

Same assay, conditions: 24 h, first singlicate assay

| SMILES | % Inhibition n=1 24h |
| --- | --- |
| Cc1ccc2c(c1)N=C(c1ccc(C)o1)N=C(c1cccs1)N2 [SN00785905] | 22.4% |

Same assay, conditions: 24 h, re-assessment

| SMILES | % Inhibition n=2 24h |
| --- | --- |
| Cc1ccc2c(c1)N=C(c1ccc(C)o1)N=C(c1cccs1)N2 [SN00785905] | 8.0% |

Same assay, conditions: 48 h

| SMILES | Average % Inhibition 48h |
| --- | --- |
| Cc1ccc2c(c1)N=C(c1ccc(C)o1)N=C(c1cccs1)N2 [SN00785905] | 54.6% |

Same assay, conditions: 48 h, first singlicate assay

| SMILES | % Inhibition n=1 48h |
| --- | --- |
| CCCNC(=O)c1cc(-c2ccc(F)cc2)on1 [SN00784460] | 0.0% |
| COc1ccc(CCNC(=O)c2cc(-c3cccs3)on2)cc1OC [SN00784489] | 33.2% |
| O=C(Nc1cccc(O)c1)c1cc(-c2cccnc2)on1 [SN00784502] | 24.5% |
| O=C(NCc1ccc(Cl)cc1)c1noc2c1CCCC2 [SN00784503] | 0.0% |
| O=C1C2C(c3ccc(F)cc3)NC(Cc3ccccc3)(C(=O)O)C2C(=O)N1c1ccc(F)cc1 (stereo not drawn) [SN00784528] | 0.7% |
| COc1ccc(-c2nc3sccn3c2Nc2ccc3c(c2)OCO3)cc1 [SN00784546] | 0.0% |
| CC(C)CCNC(=O)C1(C)CCC(=O)N1CCCN1CCN(c2cccc(Cl)c2)CC1 (stereo not drawn) [SN00784585] | 25.4% |
| Cc1ccc(CNC(=O)C2(S(=O)(=O)c3ccc(Cl)cc3)CC2)cc1 [SN00784605] | 11.5% |
| O=C(N1CCN(c2cccc(Cl)c2)CC1)C1(S(=O)(=O)c2ccc(Cl)cc2)CC1 [SN00784607] | 0.0% |
| CCOc1ccc(-n2c(=O)c3c4c(sc3n(Cc3cccnc3)c2=O)CCC4)cc1 [SN00784617] | 0.0% |
| COc1ccc(N2C(=O)NC3CC2(C)Oc2ccc(OC)cc23)cc1 (stereo not drawn) [SN00784647] | 11.2% |
| COc1cc(C(=O)N2C(=O)N(c3ccc(F)cc3)C3(C)CC2c2ccccc2O3)cc(OC)c1OC (stereo not drawn) [SN00784661] | 3.1% |
| CC12CC(c3ccccc3O1)N(C(=O)c1cccc(F)c1)C(=O)N2c1ccccc1 (stereo not drawn) [SN00784677] | 0.0% |
| Clc1ccc(Nc2nc3ccccc3n3nnnc23)cc1 [SN00784679] | 4.0% |
| Cc1cccc(NC(=O)CN2CC(c3ccccc3)CC2=O)c1 (stereo not drawn) [SN00784702] | 10.4% |
| Cc1ccc(NC(=O)CN2CC(c3ccccc3)CC2=O)c(C)c1 (stereo not drawn) [SN00784704] | 6.2% |
| O=C(NCCc1ccccc1)c1ccc(Nc2nc3ccccc3n3nnnc23)cc1 [SN00784739] | 8.5% |
| Cc1ccc(S(=O)(=O)Nc2cc3c(cc2NCc2ccccc2)n(C)c(=O)n3C)cc1 [SN00784759] | 14.3% |
| COc1ccc(S(=O)(=O)Nc2cc3c(cc2NCc2ccccc2)n(C)c(=O)n3C)cc1OC [SN00784765] | 14.1% |
| O=C(Nc1ccccc1)NC(c1ccccc1)c1nnc(-c2ccccc2Cl)o1 (stereo not drawn) [SN00784775] | 0.0% |
| O=C(CN1CCN(Cc2ccccc2)C1=O)NCc1ccc(Cl)cc1 [SN00784814] | 0.0% |
| CC(=O)c1cccc(NS(=O)(=O)c2c(C)n[nH]c2C)c1 [SN00784818] | 5.0% |
| Cc1ccc(NS(=O)(=O)c2c(C)n[nH]c2C)cc1 [SN00784820] | 8.8% |
| Cc1cc(NC(=O)C2CCN(S(=O)(=O)c3c(C)n[nH]c3C)CC2)ccc1Br [SN00784824] | 11.8% |
| CSCCC1COC(c2cccn2C)=N1 (stereo not drawn) [SN00784837] | 0.0% |
| COc1ccc(Cn2cccc2C2=NC(C)(C)CO2)cc1 [SN00784853] | 19.2% |
| CSc1cccc(NC(=O)CN2C(=O)C(C)N=C(c3ccccc3)c3ccccc32)c1 (stereo not drawn) [SN00784896] | 0.0% |

| SMILES | % Inhibition n=1 48h |
| --- | --- |
| CCN1CCN(C(=O)c2ccc(N3CCCC3=O)cc2)CC1 [SN00784919] | 8.8% |
| CCCCNC(=O)c1cccc(N2CCCC2=O)c1 [SN00784930] | 4.7% |
| Cc1nc(N(C)C)ncc1C(=O)O [SN00784957] | 3.0% |
| CC(=O)c1cccc(NC(=O)C2CCCN(S(=O)(=O)c3c(C)noc3C)C2)c1 (stereo not drawn) [SN00784980] | 0.0% |
| CCc1cccc(NC(=O)C2CCCN(S(=O)(=O)c3c(C)noc3C)C2)c1 (stereo not drawn) [SN00784983] | 0.0% |
| COc1ccc(-n2nc(C(=O)NCc3ccc(C)cc3)c3c4ccccc4n(C)c3c2=O)cc1 [SN00785076] | 5.1% |
| CCCN1C(=O)c2cc(C(=O)Nc3ccc(F)cc3)ccc2C1Nc1ccc(F)cc1 (stereo not drawn) [SN00785169] | 13.3% |
| CCCN1C(=O)c2cc(C(=O)Nc3ccccc3OC)ccc2C1Nc1ccccc1OC (stereo not drawn) [SN00785171] | 21.9% |
| CC(=O)N1CCc2cc(C(=O)CN3CCN(c4ccc(C(F)(F)F)cc4[N+](=O)[O-])CC3)ccc21 [SN00785201] | 3.8% |
| CC(=O)N1CCc2cc(C(=O)CN3CC(C)CC(C)C3)ccc21 (stereo not drawn) [SN00785210] | 19.3% |
| CCn1c(C)c(C2=CCN(S(=O)(=O)c3ccc(F)cc3)CC2)c2ccccc21 [SN00785221] | 17.2% |
| Cc1ccc(-c2[nH]c(-c3ccccc3)nc2S(=O)(=O)CC(=O)Nc2ccccc2)cc1 [SN00785272] | 11.7% |
| COc1ccc(-c2nc(S(=O)(=O)CC(=O)Nc3ccc(F)cc3)c(-c3ccc(OC)cc3)[nH]2)cc1 [SN00785276] | 12.5% |
| CCc1noc2nc(C)nc(N3CCCC(C(=O)O)C3)c12 (stereo not drawn) [SN00785300] | 0.0% |
| COc1ccc(S(=O)(=O)n2nc(-c3cc(OC)c(OC)c(OC)c3)cc2N)cc1OC [SN00785320] | 21.7% |
| COCCNC(=O)N1Cc2c(C)nn(-c3ccccc3)c2-n2cccc2C1c1cccc(C)c1 (stereo not drawn) [SN00785355] | 10.0% |
| CCN1c2cc(C)ccc2-n2cccc2C12CCN(S(=O)(=O)c1ccc(C)cc1)CC2 [SN00785371] | 10.4% |
| CC(C)CCNC(=O)C1(C)CCc2ccccc2C(=O)N1Cc1ccccc1F (stereo not drawn) [SN00785390] | 14.6% |
| Cc1ccc(C(=O)N2CCN(c3nc4ccccc4n4cccc34)CC2)cc1 [SN00785395] | 25.5% |
| Cc1cccc(C)c1NC(=O)Cn1c(=O)n(CCc2c[nH]c3ccccc23)c(=O)c2cccnc21 [SN00785456] | 0.5% |
| COc1ccc(S(=O)(=O)N2CC=C(C(=O)Nc3ccc(Cl)cc3)CC2)cc1 [SN00785473] | 0.0% |
| COc1ccc(S(=O)(=O)N2CC=C(C(=O)NCc3ccc(C)cc3)CC2)cc1 [SN00785474] | 23.4% |
| CCC1CCCCN1C(=O)Cn1c(C(=O)OC)cc2occc21 (stereo not drawn) [SN00785479] | 8.8% |
| Cn1c(C(=O)N2CCCC(C(=O)NCCc3ccccc3)C2)cc2sccc21 (stereo not drawn) [SN00785483] | 4.8% |
| CCOC(=O)c1cc2n(n1)CC(C)(C(=O)NCCC(C)C)N(CCc1cccs1)C2=O (stereo not drawn) [SN00785530] | 6.6% |
| CN(CCCN)C(=O)c1ccc2c(=O)n3c(nc2c1)CCCCC3 [SN00785585] | 25.4% |
| CC1CCc2nn(CC(=O)NC(C)c3ccccc3)cc2C1 (stereo not drawn) [SN00785614] | 0.0% |

| SMILES | % Inhibition n=1 48h |
| --- | --- |
| Cc1cc(=O)n2nc(N(C)CC(=O)NC3CCCc4ccccc43)sc2n1 (stereo not drawn) [SN00785631] | 35.0% |
| CCCc1cc(=O)n2nc(N(C)CC(=O)NCCCN3CCCC3=O)sc2n1 [SN00785642] | 4.1% |
| CCCCCCNC(=O)Cc1c(C)nc2c(-c3ccccc3)c(C)nn2c1C [SN00785656] | 17.0% |
| CCC(=O)N1N=C2C3CCN(CC3)[C@@H]2[C@@H]1c1cccc(OC)c1OC [SN00785687] | 13.8% |
| COc1ccc(C(=O)c2c(N)c(-c3nc(-c4cc(OC)ccc4OC)cs3)c3ccccn23)cc1 [SN00785721] | 0.0% |
| O=S(=O)(c1ccc(Br)cc1)c1nc(-c2ccccc2)oc1N1CCOCC1 [SN00785745] | 4.0% |
| Cc1ccc2nc(C3=C(N)N(C4CCCCCC4)CC3=O)[nH]c2c1 [SN00785773] | 29.0% |
| Cc1ccc([N+](=O)[O-])cc1N1CC(=O)C(c2nc3ccccc3[nH]2)=C1N [SN00785776] | 21.1% |
| CN(C)CCn1c(=O)c2[nH]cnc2n(C)c1=O [SN00785782] | 13.4% |
| O=C1c2ccccc2C(=O)N1CC(=O)n1nc(-c2cccnc2)nc1NCc1cccs1 [SN00785806] | 3.6% |
| Cc1cc(N2CCN(c3ccccc3F)CC2)n2cnnc2n1 [SN00785845] | 30.4% |
| CN(Cc1ccccc1)c1c2c(nc3nncn13)CCC2 [SN00785855] | 14.3% |
| Cc1ccc2c(c1)N=C(c1ccc(C)o1)N=C(c1cccs1)N2 [SN00785905] | 69.6% |
| Fc1ccc(C2=NC(c3cccs3)=Nc3cc(Cl)ccc3N2)cc1 [SN00785914] | 0.0% |
| O=C1O[C@@H]2C[C@H]3C[C@@H]2[C@@H]1[C@H]3C(=O)Nc1ccc(C(=O)N2CC=C(c3ccccc3)CC2)cc1 [SN00785926] | 11.8% |
| CN1CC(c2nc3ccccc3[nH]2)CC1=O (stereo not drawn) [SN00785951] | 0.0% |
| CCCCS(=O)(=O)N1CCC(c2nnnn2-c2ccc(C)cc2)CC1 [SN00785962] | 0.0% |
| Cc1ccccc1NC(=O)c1ccc2c(c1)CCN2S(C)(=O)=O [SN00785973] | 31.2% |
| Cc1ccc(CNC(=O)c2ccc3c(c2)CCN3S(=O)(=O)c2ccc(C)cc2)cc1 [SN00785985] | 38.5% |
| Cc1cccc(NC(=O)NC2CCN(c3nc(C)cc(C)n3)CC2)c1 [SN00786006] | 33.8% |
| CCOc1cc(C2OCCn3c(-c4ccccc4)c4c(=O)n(C)c(=O)n(C)c4c32)ccc1O (stereo not drawn) [SN00786012] | 8.5% |
| CCCOc1ccc(C2OCCn3c(-c4ccc(OC)cc4)c4c(=O)n(C)c(=O)n(C)c4c32)cc1 (stereo not drawn) [SN00786016] | 14.8% |
| CC(=O)c1cc2c(cc1NC(=O)c1cn(-c3ccc(F)cc3)nn1)OCO2 [SN00786071] | 7.4% |
| Cc1ccccc1NC(=O)c1nc(S(C)(=O)=O)ncc1N(Cc1ccco1)Cc1sccc1C [SN00786086] | 11.7% |
| CCS(=O)(=O)c1ncc(N(Cc2ccco2)Cc2ccccc2F)c(C(=O)Nc2ccccc2)n1 [SN00786098] | 17.4% |

Same assay, conditions: 48 h, re-assessment

| SMILES | % Inhibition n=2 48h |
| --- | --- |
| Cc1ccc2c(c1)N=C(c1ccc(C)o1)N=C(c1cccs1)N2 [SN00785905] | 39.6% |
